Test: Plasma pharmacokinetics of simvastatin and simvastatin hydroxy acid after oral simvastatin alone and combined with imatinib in CML patients (LC/MS/MS)
Settings: for t1/2: simvastatin in plasma, mean±s.d., in h

- Tmax (both, human, plasma, po, 40 mg): 1 h
- Vd/F (both, human, plasma, po, 40 mg): 3120 ± 2750 L
- half-life (both, human, plasma, po, 40 mg): 1.4 h
- mean reduction of total-body clearance from plasma (CL/F) (simvastatin 40 mg coadministered with imatinib 400 mg, P<0.001): 70%
- t1/2 (40 mg simvastatin oral alone (day 1)): 1.4±0.8
- t1/2 (40 mg simvastatin oral plus 400 mg imatinib oral (day 8)): 2.7±1.3
SMILES: CCC(C)(C)C(=O)O[C@H]1C[C@@H](C)C=C2C=C[C@H](C)[C@H](CC[C@@H]3C[C@@H](O)CC(=O)O3)[C@H]21 [Simvastatin]

— article PMC2394453 (British Journal of Cancer, 2003)
